Values of other authors, collected in patent US11646117B2, “Matrix factorization of antibiogram metadata” (priority 2019, dated 2023).
Where two headings read alike, the source gives them in different places.

Test system: Klebsiella pneumoniae (biosample SAMN07265011, strain DHQP1605752_NV)
Conditions: for Measurement (MIC): CLSI; for Resistance phenotype: testing standard CLSI

Q: For colistin, which “Measurement (MIC)” value (laboratory typing method MIC) is on record?
A: Its value is > 8 µg/mL.

Q: Which results are given for `Cc1nnc(SCC2=C(C(=O)O)N3C(=O)[C@@H](NC(=O)Cn4cnnn4)[C@H]3SC2)s1` [cefazolin]?
A: Measurement (MIC) (laboratory typing method MIC): > 8 µg/mL; Resistance phenotype: resistant

Q: What does the source list for `CO[C@@]1(NC(=O)Cc2cccs2)C(=O)N2C(C(=O)O)=C(COC(N)=O)CS[C@@H]21` [cefoxitin]?
A: Measurement (MIC) (laboratory typing method MIC): > 16 µg/mL; Resistance phenotype: resistant

Q: What does the source list for `CC(C)(O/N=C(\C(=O)N[C@@H]1C(=O)N2C(C(=O)[O-])=C(C[n+]3ccccc3)CS[C@H]12)c1csc(N)n1)C(=O)O` [ceftazidime]?
A: Measurement (MIC) (laboratory typing method MIC): > 128 µg/mL; Resistance phenotype: resistant

Q: What does the source list for gentamicin?
A: Measurement (MIC) (laboratory typing method MIC): > 16 µg/mL; Resistance phenotype: resistant

Q: With `NC[C@H]1O[C@H](O[C@H]2[C@H](O)[C@@H](O[C@H]3O[C@H](CO)[C@@H](O)[C@H](N)[C@H]3O)[C@H](N)C[C@@H]2N)[C@H](N)C[C@@H]1O` [tobramycin] as the compound, how does the “Measurement (MIC)” value (laboratory typing method MIC) read?
A: The value was > 16 µg/mL.

Q: What about the Resistance phenotype of the same compound?
A: The Resistance phenotype was “resistant”.

Q: With polymyxin B as the compound, how does the “Measurement (MIC)” value (laboratory typing method MIC) read?
A: The value was > 8 µg/mL.

Q: For `C[C@@H](O)[C@H]1C(=O)N2C(C(=O)O)=C(S[C@@H]3CN[C@H](C(=O)N(C)C)C3)[C@H](C)[C@H]12` [meropenem], which “Measurement (MIC)” value (laboratory typing method MIC) is on record?
A: The value was > 8 µg/mL.

Q: And the Resistance phenotype?
A: Its Resistance phenotype is “resistant”.

Q: Which “Measurement (MIC)” value (laboratory typing method MIC) does the source give for `C[C@H]1[C@H](NC(=O)/C(=N\OC(C)(C)C(=O)O)c2csc(N)n2)C(=O)N1S(=O)(=O)O` [aztreonam] here?
A: Its value is > 64 µg/mL.

Q: And the Resistance phenotype?
A: The Resistance phenotype was “resistant”.

Q: What does the source list for `C[C@@H](O)[C@H]1C(=O)N2C(C(=O)O)=C(S[C@@H]3CN[C@H](C(=O)Nc4cccc(C(=O)O)c4)C3)[C@H](C)[C@H]12` [ertapenem]?
A: Measurement (MIC) (laboratory typing method MIC): > 8 µg/mL; Resistance phenotype: resistant

Q: Which results are given for `CO/N=C(\C(=O)N[C@@H]1C(=O)N2C(C(=O)[O-])=C(C[N+]3(C)CCCC3)CS[C@H]12)c1csc(N)n1` [cefepime]?
A: Measurement (MIC) (laboratory typing method MIC): > 32 µg/mL; Resistance phenotype: resistant

Q: Which “Measurement (MIC)” value (laboratory typing method MIC) does the source give for `CO/N=C(\C(=O)N[C@@H]1C(=O)N2C(C(=O)O)=C(COC(C)=O)CS[C@H]12)c1csc(N)n1` [cefotaxime] here?
A: The value was > 64 µg/mL.

Q: And the Resistance phenotype?
A: The Resistance phenotype was “resistant”.

Q: What does the source list for `C[C@@H](O)[C@H]1C(=O)N2C(C(=O)O)=C(S[C@@H]3CN[C@H](CNS(N)(=O)=O)C3)[C@H](C)[C@H]12` [doripenem]?
A: Measurement (MIC) (laboratory typing method MIC): > 8 µg/mL; Resistance phenotype: resistant

Q: Which “Measurement (MIC)” value (laboratory typing method MIC) does the source give for `CC1(C)S[C@@H]2[C@H](NC(=O)[C@H](N)c3ccccc3)C(=O)N2[C@H]1C(=O)O` [ampicillin] here?
A: Its value is > 32 µg/mL.

Q: What about the Resistance phenotype of the same compound?
A: The Resistance phenotype was “resistant”.

Q: What does the source list for `CN(C)c1cc(NC(=O)CNC(C)(C)C)c(O)c2c1C[C@H]1C[C@H]3[C@H](N(C)C)C(O)=C(C(N)=O)C(=O)[C@@]3(O)C(O)=C1C2=O` [tigecycline]?
A: Measurement (MIC) (laboratory typing method MIC): 4 µg/mL; Resistance phenotype: intermediate

Q: Which “Measurement (MIC)” value (laboratory typing method MIC) does the source give for `CO/N=C(\C(=O)N[C@@H]1C(=O)N2C(C(=O)O)=C(CSc3nc(=O)c(=O)[nH]n3C)CS[C@H]12)c1csc(N)n1` [ceftriaxone] here?
A: Its value is > 32 µg/mL.

Q: And the Resistance phenotype?
A: Its Resistance phenotype is “resistant”.

Q: Which results are given for `C[C@@H]1O[C@@H]1P(=O)(O)O` [fosfomycin]?
A: Measurement (MIC) (MIC, platform Agar dilution): 32 µg/mL; Measurement (MIC) (MIC, platform Etest): 16 µg/mL

Q: With `O=C(N[C@H](CO)[C@H](O)c1ccc([N+](=O)[O-])cc1)C(Cl)Cl` [chloramphenicol] as the compound, how does the “Measurement (MIC)” value (laboratory typing method MIC) read?
A: Its value is > 16 µg/mL.

Q: What about the Resistance phenotype of the same compound?
A: The Resistance phenotype was “resistant”.

Q: For `NCC[C@H](O)C(=O)N[C@@H]1C[C@H](N)[C@@H](O[C@H]2O[C@H](CN)[C@@H](O)[C@H](O)[C@H]2O)[C@H](O)[C@H]1O[C@H]1O[C@H](CO)[C@@H](O)[C@H](N)[C@H]1O` [amikacin], which “Measurement (MIC)” value (laboratory typing method MIC) is on record?
A: Its value is > 64 µg/mL.

Q: And the Resistance phenotype?
A: Its Resistance phenotype is “resistant”.
